US10421751B2, “Dihydro-2H-benzo[b][1,4]oxazine sulfonamide and related compounds for use as agonists of RORγ and the treatment of disease” (Lycera Corporation, priority 2015, dated 2019)

Key:
RORγ-LBD = target: T1, RORγ-LBD (Homo sapiens, UniProt P51449); test: RORγ-Ligand Binding Domain (LBD) TR-FRET Assay; assay type: biochemical; details: for EC50: in presence of 2 μM RORγ antagonist ursolic acid, SRC1 coactivator peptide; for TR-FRET Assay Max Response: upper plateau of 4-parameter fit, signal in the absence of ursolic acid or test compound set as 100
T1 construct: made in house; host or cells: SF9 cells, baculovirus expression system; used as diluted lysate
T1 sequence (P51449 269-508 limits assumed): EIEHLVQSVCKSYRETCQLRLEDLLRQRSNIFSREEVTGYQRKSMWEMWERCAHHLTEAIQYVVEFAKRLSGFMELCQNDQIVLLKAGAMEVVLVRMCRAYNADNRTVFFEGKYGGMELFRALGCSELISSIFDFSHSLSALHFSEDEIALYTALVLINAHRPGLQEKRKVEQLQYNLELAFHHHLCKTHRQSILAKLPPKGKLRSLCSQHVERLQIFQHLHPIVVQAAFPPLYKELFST
Protocol: HIS-tagged RORγ-LBD protein was expressed in SF9 cells using a baculovirus expression system. The lysate was diluted in assay buffer (50 mM Tris pH 7.0, 50 mM KCl, 1 mM EDTA, 0.1 mM DTT, 0.01% BSA) to obtain RORγ-LBD final concentration of ˜3 nM in a 384-well assay plate (need to titrate for each batch of protein).
A stock of biotinylated-LXXLL peptide from coactivator SRC1 (Biotin-[…]) was prepared in assay buffer and added to each well (200 nM final concentration). A solution of Europium tagged anti-HIS antibody (0.6 nM final concentration) and APC-conjugated streptavidin (30 nM final concentration) were also added to each well. RORγ antagonist ursolic acid was also included at a final concentration of 2 μM. Compounds were diluted in DMSO and further diluted in assay buffer with a final DMSO concentration at 1%.
The final assay mixture was incubated overnight at 4° C. or 2 hours at room temperature, and the fluorescence signal was measured on an Envision plate reader: (Excitation filter=340 nm; APC emission=665 nm; Europium emission=615 nm; dichroic mirror=D400/D630; delay time=100 μs, integration time=200 μs). 50% Effective concentration (EC50) values for test compounds were calculated from the quotient of the fluorescence signal at 665 nm divided by the fluorescence signal at 615 nm. The quotient of the fluorescence signals in the absence of ursolic acid or test compound is set as 100. Max Response is defined as the upper plateau in the signal as determined by line-fit using a 4-parameter logistic model in PRISM (GraphPad).

Gal4-RORγ-LBD = target: T2, Gal4-RORγ-LBD (Homo sapiens, UniProt P51449); test: Gal4-RORγ Luciferase Reporter Assay in HEK-293T Cells; assay type: cell-based; details: for EC50: HEK-293 cells, in presence of 2 μM ursolic acid, overnight incubation, read-out: Ga14-RORγ Assay EC50; for Ga14-RORγ Assay Max Response: upper plateau of 4-parameter fit, luciferase signal in the absence of ursolic acid or test compound defined at 100
T2 construct: expressed in transfected cells; pcDNA3.1neo plasmid, co-transfected with pGL4.31 Gal4-luciferase reporter
T2 sequence (P51449 269-508 limits assumed): T1 sequence (P51449 269-508 limits assumed)
Protocol: In the following protocol, HEK-293 cells were transfected with a construct comprising the Gal4 DNA binding domain fused to the ligand binding domain of RORγ (Gal4-RORγ-LBD) in a pcDNA3.1neo plasmid, and also with a reporter construct comprising pGL4.31 Gal4-luciferase (Promega). Control cells were prepared similarly using empty pcDNA3.1neo and pGL4.31 vectors.
Trans-IT reagent (Mirus, 60 μL) at room temperature was added drop wise to OptiMEM (Invitrogen, 1.5 ml). This reagent mixture was mixed by inversion then incubated for 5 to 30 minutes at room temperature. It then was added to a solution of both expression vectors (5 μg each), mixed, and incubated at room temperature for about 20 minutes. HEK-293 cells were harvested from incubation flasks by removing the media, treating with TrypLE Express (Invitrogen), and incubating until the cells detached from the bottom of the flask (approximately 2-5 minutes). 10 Million cells were collected by centrifugation and re-suspended in 10 mL of Dulbecco's Modified Eagle Medium, High Glucose (DMEM, Invitrogen) containing 10% Fetal Bovine Serum and 100 IU each of penicillin and streptomycin. The re-suspended cells and the transfection mixture were added to a T75 flask, mixed and incubated overnight at 37° C. and 5% CO2.
The cells were harvested as described above, counted, and centrifuged to obtain the desired number of cells, then re-suspended in complete growth media at 0.75×10^6 cells/mL. The RORγ antagonist, ursolic acid, was added to the cells at a final concentration of 2 μM. Cells were plated at 20 μL of cell suspension/well (10,000-15,000 cells/well) in white tissue culture treated 384 well plates. Test compounds were dissolved at 10 mM in DMSO then diluted into complete growth medium to 5× the final intended test concentration. These drug stock solutions, 5 μL/well were added to the tissue culture plate. The final DMSO concentration was 0.2%. The plates were briefly centrifuged then incubated overnight at 37° C. and 5% CO2. To conduct the assay, the tissue culture plates were allowed to equilibrate to room temperature and One-Glo luciferase reagent (Promega, 25 μL/well) was added. The plates were briefly centrifuged then incubated at room temperature for 10 minutes. The luciferase intensity was read on an Envision plate reader (Perkin Elmer). RORγ activity was determined relative to controls and plotted as a function of test compound concentration using PRISM (GraphPad) to determine a 50% effective concentration (EC50). The luciferase signal in the absence of ursolic acid or test compound is defined at 100. The Max Response is the upper plateau in the signal as determined by line-fit using a 4-parameter logistic model in PRISM (GraphPad).

Structure (SMILES)	EC50 (RORγ-LBD) [nM]	TR-FRET Assay Max Response (RORγ-LBD)	EC50 (Gal4-RORγ-LBD) [nM]	Ga14-RORγ Assay Max Response (Gal4-RORγ-LBD)
C/C(=C\c1ccc2c(c1)N(S(=O)(=O)c1cc(Cl)cnc1OCCO)C[C@H](CCc1n[nH]c(=O)o1)O2)c1c(F)cccc1Cl	< 100	**** (a value greater than 200)	100 to 5000	** (a value in the range of greater than 90 to 150)
O=c1[nH]nc(CC[C@H]2CN(S(=O)(=O)c3cccc(C(F)(F)F)c3)c3cc(/C=C/c4ncccc4C(F)(F)F)ccc3O2)o1	< 100	*** (a value in the range of greater than 150 to 200)	100 to 5000	** (a value in the range of greater than 90 to 150)
C/C(=C\c1ccc2c(c1)N(S(=O)(=O)c1cccc(C(F)(F)F)c1)[C@H](C)[C@H](Cn1ccnc1)C2)c1c(F)cccc1Cl	< 100	*** (a value in the range of greater than 150 to 200)	100 to 5000	** (a value in the range of greater than 90 to 150)
C/C(=C\c1ccc2c(c1)N(S(=O)(=O)c1cccc(C(F)(F)F)c1)C[C@H](CCCn1ccnn1)O2)c1c(F)cccc1Cl	< 100	*** (a value in the range of greater than 150 to 200)	100 to 5000	** (a value in the range of greater than 90 to 150)
CCOc1nn(CC)cc1S(=O)(=O)N1C[C@H](CCc2n[nH]c(=O)o2)Oc2ccc(/C=C/c3c(Cl)cccc3C(F)(F)F)cc21	< 100	**** (a value greater than 200)	100 to 5000	** (a value in the range of greater than 90 to 150)
C/C(=C\c1ccc2c(c1)N(S(=O)(=O)c1cccc(C(F)(F)F)c1)C[C@H](Oc1noc(=O)[nH]1)C2)c1c(F)cccc1Cl	100 to 5000	*** (a value in the range of greater than 150 to 200)	100 to 5000	** (a value in the range of greater than 90 to 150)
CCOc1ncc(C(F)(F)F)cc1S(=O)(=O)N1C[C@H](CCc2n[nH]c(=O)o2)Oc2ccc(/C=C(\C)c3c(F)cccc3Cl)cc21	< 100	**** (a value greater than 200)	100 to 5000	** (a value in the range of greater than 90 to 150)
C/C(=C\c1ccc2c(c1)N(S(=O)(=O)c1cccc(C(F)(F)F)c1)C[C@H](CCc1n[nH]c(=O)o1)O2)c1c(F)cccc1Cl	< 100	** (a value in the range of greater than 90 to 150)	100 to 5000	** (a value in the range of greater than 90 to 150)
C/C(=C\c1ccc2c(c1)N(S(=O)(=O)c1cccc(C(F)(F)F)c1)C[C@H](CCCc1noc(=O)[nH]1)O2)c1c(F)cccc1Cl	100 to 5000	*** (a value in the range of greater than 150 to 200)	100 to 5000	** (a value in the range of greater than 90 to 150)
C/C(=C\c1ccc2c(c1)N(S(=O)(=O)c1cccc(C(F)(F)F)c1)C[C@H](CCCc1nn[nH]n1)O2)c1c(F)cccc1Cl	100 to 5000	*** (a value in the range of greater than 150 to 200)	100 to 5000	** (a value in the range of greater than 90 to 150)
CCn1cc(S(=O)(=O)N2C[C@H](CCOc3noc(=O)[nH]3)Oc3ccc(/C=C(\C)c4c(F)cccc4Cl)cc32)c(Cl)n1	< 100	*** (a value in the range of greater than 150 to 200)	100 to 5000	*** (a value in the range of greater than 150 to 200)
C[C@@H]1[C@H](n2cc[nH]c2=O)Cc2ccc(/C=C/c3c(F)cccc3C(F)(F)F)cc2N1S(=O)(=O)c1cccc(C(F)(F)F)c1	100 to 5000	*** (a value in the range of greater than 150 to 200)	100 to 5000	** (a value in the range of greater than 90 to 150)
C/C(=C\c1ccc2c(c1)N(S(=O)(=O)c1cccc(C(F)(F)F)c1)C[C@H](CCn1ccnn1)O2)c1c(F)cccc1Cl	< 100	*** (a value in the range of greater than 150 to 200)	100 to 5000	** (a value in the range of greater than 90 to 150)
C/C(=C\c1ccc2c(c1)N(S(=O)(=O)c1cccc(C(F)(F)F)c1)C[C@H](CCn1cccn1)O2)c1c(F)cccc1Cl	< 100	*** (a value in the range of greater than 150 to 200)	100 to 5000	** (a value in the range of greater than 90 to 150)
C/C(=C\c1ccc2c(c1)N(S(=O)(=O)c1ccc(F)c(OC(F)F)c1)C[C@H](CCc1n[nH]c(=O)o1)O2)c1c(F)cccc1Cl	< 100	**** (a value greater than 200)	100 to 5000	** (a value in the range of greater than 90 to 150)
CCn1cc(S(=O)(=O)N2C[C@H](CCc3n[nH]c(=O)o3)Oc3ccc(/C=C/c4c(Cl)cccc4C(F)(F)F)cc32)c(OCCO)n1	< 100	**** (a value greater than 200)	100 to 5000	** (a value in the range of greater than 90 to 150)
CCOc1nn(CC)cc1S(=O)(=O)N1C[C@H](CCOc2noc(=O)[nH]2)Oc2ccc(/C=C(\C)c3c(F)cccc3Cl)cc21	< 100	*** (a value in the range of greater than 150 to 200)	100 to 5000	** (a value in the range of greater than 90 to 150)
